Assays:
[1] = tested on: HCT116 cells; assay: Inhibition of cancer cell proliferation (MTT, GIC50); type: cell-based; settings: Homo sapiens, HCT-116, 48 hours incubation
Procedure: HCT116 cells derived from human colorectal cancer were used, and an effect of a biguanide derivative on the inhibition of cancer cell proliferation was confirmed by measuring a concentration value (cell growth inhibition concentration, GIC50) at which 50% of the cell growth was inhibited using a 3-(4,5-dimethylthiazol-2-yl)-2,5-diphenytetrazolium bromide (MTT) reagent.
First, HCT116 cells were put on a 96-well plate and cultured in a DMEM medium containing 10% bovine serum for 24 hours to each have cell count of approximately 5000. Subsequently, to obtain the GIC50 value of each compound, 100 μM (or 200 μM), 25 μM, 6.25 μM, 1.56 μM or 0.39 μM of the compound was treated to each culture medium and then incubated for 48 hours. To confirm living cells after treatment with the compound, MTT was added to each culture medium and further incubated for 3 hours. Generated formazane crystal was dissolved using dimethyl sulfoxide (DMSO) and absorbance of the solution was measured at 560 nm. After the 48-hour incubation, a ratio of a cell count cultured on a well plate not treated with the compound to a cell count on a well plate treated with compounds synthesized in the examples was indicated as cell viability (%) according to each administered concentration. A cell viability curve was plotted using the cell viability (%), and the calculated concentration value (GIC50) of the compound, at which 50% of the growth was inhibited was, to confirm an effect on the inhibition of cancer cell proliferation.

[2] = tested on: 5′-AMP-activated protein kinase (AMPK); assay: AMPK activation (AMPKα Thr172 phosphorylation immunoassay) in MCF7 cells; type: cell-based, human; settings: MCF7 cells; for AMPK Activation (phosphorylated AMPKα Thr172): 50 μM compound, 24 hours; for fold induction at 50 µM: Homo sapiens, 24 h, 50 μM vs. 0 (cells without compound)
Procedure: MCF7 cells derived from human breast cancer cells were used, and an effect of a biguanide derivative on 5′-AMP-activated protein kinase (AMPK) activation was confirmed using an AMPKα immunoassay kit (Invitrogen, catalog No. KHO0651).
The MCF7 cells were put on a 6-well plate and incubated in a DMEM medium containing 10% fetal bovine serum in an incubator to which 5% CO2 was supplied to have a cell count of approximately 5×10^5. 50 μM of derivatives synthesized in the examples were treated to the each culture medium, and the cells were incubated for 24 hours. Subsequently, the cells were lysed by a method presented in the operation manual of the AMPKα immunoassay kit, and 20 μg of cell lysates were yielded through protein assay. A degree of phosphorylation of an AMPKα threonine 172nd residue (Thr172) from the cell lysates were confirmed according to a method presented in the operation manual of the AMPKα immunoassay kit to thereby obtain results.
In addition, an experiment was performed in the same manner as described in Experimental Example 2 using metformin as a control group, and the results of an effect on AMPK activation were compared to the effect on AMPK activation when 1 mM metformin was treated.

Compound | IC50 [1] [µM] | melting point [°C] | AMPK Activation (phosphorylated AMPKα Thr172) [2] | fold induction at 50 µM [2]
CCN(CC)C(=N)NC(=N)Nc1cccc(Cl)c1.Cl [Example 30, N1,N1-diethyl-N5-(3-chloro)phenyl Biguanide Hydrochloride] | 28.3 | 219 to 220 | 19.3 | 7.7
CCCN(CC)C(=N)NC(=N)Nc1ccc(Cl)cc1.Cl [Example 32, N1,N1-(ethyl)(propyl)-N5-(4-chloro)phenyl Biguanide Hydrochloride] | > 200 | 110 to 112 | 5.2 | 1
CCCN(CCC)C(=N)NC(=N)Nc1cccc2cnccc12.Cl [Example 33, N1,N1-dipropyl-N5-(isoquinoline-5-yl) Biguanide Hydrochloride] | > 100 | 191 to 192 | 11.3 | 1.7
CCN(CC)C(=N)NC(=N)N(CC)CC.Cl [Example 35, N1,N1,N5,N5-tetraethyl Biguanide Hydrochloride] | > 200 | 140 to 141 | 3.8 | 0.7
CCN(CC)C(=N)NC(=N)N(C)C1CCCCC1.Cl [Example 36, N1,N1-diethyl-N5,N5-(cyclohexyl)(methyl) Biguanide Hydrochloride] | > 200 | 115 to 117 | 4.5 | 0.8
CCCN(CCC)C(=N)NC(=N)N(CC)CC.Cl [Example 37, N1,N1-dipropyl-N5,N5-diethyl Biguanide Hydrochloride] | > 100 | 151 to 152 | 33.3 | 6.3
CCCN(CCC)C(=N)NC(=N)N(C)CCc1ccccc1.Cl [Example 38, N1,N1-dipropyl-N5,N5-(methyl)(phenethyl) Biguanide Hydrochloride] | 36 | 110 to 111 | 35.8 | 6.8
CCCN(CCC)C(=N)NC(=N)N(c1ccccc1)c1ccc(O)cc1.Cl [Example 39, N1,N1-dipropyl-N5,N5-(4-hydroxylphenyl)(phenyl) Biguanide Hydrochloride] | > 100 | 189 to 190 | 28.8 | 4.2
CN(Cc1ccccc1)C(=N)NC(=N)N(C)Cc1ccccc1.Cl [Example 40, N1,N1,N5,N5-bis((benzyl)(methyl)) Biguanide Hydrochloride] | > 100 | 141 to 142 | 11.3 | 1.7
